Where “and” joins values, the source holds several entries; their conditions need not be identical. Identical values can stand only once. Like-named read-outs stand apart in the source and are kept apart here. Peptide text beside a SMILES is read from it. * marks the point of attachment. Cbz = O=C(OCc1ccccc1)*
Legend:
[1] = test system: NanoLuc-PEST expressing L. mexicana axenic amastigotes; experiment: Fluorescence-based (AlamarBlue) viability assay, NanoLuc-PEST axenic amastigotes; details: Leishmania mexicana, 72 h
[2] = test system: L. mexicana axenic amastigotes; set-up: method as in PMID 9087496; details: L. mexicana axenic amastigotes ref 47; read-out: Previous EC50, axenic amastigotes; cited from earlier work
[3] = test system: L. mexicana NanoLuc-PEST intramacrophage amastigotes; experiment: Bioluminescence-based intramacrophage assay in THP-1 infection model; type: cell-based; details: for EC50: read-out: EC50 against amastigotes, Intramacrophage; for EC90: read-out: EC90 against amastigotes, Intramacrophage
[4] = test system: NanoLuc-PEST expressing L. mexicana axenic amastigotes; experiment: microbe, parasite or virus in culture; type: cell-based
[5] = test system: L. donovani axenic amastigotes; details: value in brackets ref 49–51, read-out: Previous EC50, axenic amastigotes; cited from earlier work
MRC5 = test system: MRC5; set-up: method as in MMV Pathogen Box website; details: ref MMV Pathogen Box website; cited from earlier work
[6] = test system: L. donovani intramacrophage amastigotes; details: value in brackets ref 49–51, read-out: Previous EC50, intramacrophage amastigotes; cited from earlier work
HepG2 = details: ref MMV Pathogen Box website, cited from earlier work
[7] = test system: L. mexicana intramacrophage amastigotes; set-up: method as in PMID 14695832; details: values in brackets ref 52, read-out: Previous EC50, intramacrophage amastigotes; cited from earlier work
[8] = test system: wild-type L. mexicana axenic amastigotes; experiment: Fluorescence-based (AlamarBlue) viability assay, parental axenic amastigotes; details: Leishmania mexicana, 72 h
[9] = test system: Leishmania spp. intramacrophage amastigotes; details: value in brackets ref 55, read-out: Previous EC50, intramacrophage amastigotes; cited from earlier work
[10] = test system: NanoLuc-PEST-expressing L. mexicana promastigotes and axenic amastigotes; experiment: Cycloheximide and proteasome (MG-132) assays on luciferase signal; type: cell-based; details: 5 μM, 6 hours
Method: Detection of NanoLuc and NanoLuc-PEST enzymes was performed using the lytic Nano-Glo Assay (Promega), according to the manufacturer’s instructions. Detection of PRE9 was performed using either the Firefly Luciferase Glow Assay (Pierce), or the Bright-Glow Assay (Promega). Bioluminescence was measured using the Promega GloMax Multi Detection System. All data was normalised by subtracting bioluminescence values for the untransformed, parental line, and all assays done in triplicate.
Cycloheximide assays were performed over 8 hours. Cells were seeded to a cell density of 5 x10^5 cells/well (100 μL/well). Cycloheximide (Sigma) was added to each well to a final concentration of 100 μM and incubated with cells for a range of time points between 0 and 8 hours. Bioluminescence was measured as described above, and the half-life of each luciferase was calculated by one phase decay non-linear regression (GraphPad Prism 6.0). Proteosome assays were performed using the method above with the addition of 5 μM MG-132 (Sigma) for 6 hours. Statistical significance was determined using a paired, two-tailed T-test (GraphPad Prism 6.0).

[11] = Leishmania mexicana, 72 h; read-out: EC50
[12] = Leishmania mexicana; 2 µM compound, 72 hours, relative to DMSO only control, n = 4; read-out: Relative Bioluminescence (%)
[13] = Leishmania mexicana; 10 µM compound, 72 hours, relative to DMSO only control, n = 4; read-out: Relative Bioluminescence (%)
[14] = Leishmania mexicana; read-out: EC50 against amastigotes, Axenic
[15] = Leishmania mexicana; read-out: EC90 against amastigotes, Axenic
[16] = THP-1 infection model, bioluminescence
[17] = 2 µM compound, 72 hours, relative to DMSO only control, n = 4
[18] = 10 µM compound, 72 hours, relative to DMSO only control, n = 4
[19] = read-out: EC50 against amastigotes, Axenic
[20] = read-out: EC90 against amastigotes, Axenic
[21] = hit compounds from the axenic amastigote screen, S3 Table; read-out: EC50, Axenic Amastigotes
[22] = Leishmania mexicana, THP-1 infection model, bioluminescence

C[C@@H]1[C@H](O)[C@@H](C)/C=C/C=C/C=C/C=C/C=C/C=C/C=C/[C@H](O[C@@H]2O[C@H](C)[C@@H](O)[C@H](N)[C@@H]2O)C[C@@H]2O[C@](O)(C[C@@H](O)C[C@@H](O)[C@H](O)CC[C@@H](O)C[C@@H](O)CC(=O)O[C@H]1C)C[C@H](O)[C@H]2C(=O)O [Amphotericin B, reference compound]
EC50 [1]: 270 nM | EC50 [2]: 300 nM and 303 nM | decrease of bioluminescent signal [3]: ≥ 99% | EC50 ([3]; Leishmania mexicana, THP-1): 105 nM | EC90 ([3]; Leishmania mexicana, THP-1): 185 nM | EC50 [4, 11]: 200 nM | viability at 2 µM [4, 12]: 58.3% | viability at 10 µM [4, 13]: 48.4% | EC50 ([4]; Leishmania mexicana; axenic amastigotes; span over parental and transgenic line, both bioluminescence- and fluorescence-based assays; read-out: EC50 values from the parental and transgenic line): 200 to 270 nM | EC50 [4, 14]: 201 nM | EC90 [4, 15]: 279 nM

COc1ccc(Oc2ccc([C@@H](C)N(C)c3ncc4c(N)nc(N)nc4n3)cc2)cc1 [MMV690102]
EC50 [5]: 40 nM | CC50 (MRC5): 5400 nM | EC50 [6]: 100 nM | EC50 [3, 16]: 107 nM | EC90 [3, 16]: 160 nM | Relative Bioluminescence (%) [4, 17]: -5.29% | Relative Bioluminescence (%) [4, 18]: -1.34% | EC50 [4, 19]: 60 nM | EC90 [4, 20]: 123 nM

O=C(Nc1ccc2c(c1)B(O)OC2)c1ccccc1C(F)(F)F [MMV652003]
CC50 (MRC5): > 32000 nM | EC50 [3, 16]: 3640 nM | EC90 [3, 16]: 10700 nM | HepG2 CC20 (HepG2): 400 nM | Relative Bioluminescence (%) [4, 17]: -1.53% | Relative Bioluminescence (%) [4, 18]: -1.54% | EC50 [4, 21]: 70 nM | EC50 [4, 19]: 77 nM | EC90 [4, 20]: 104 nM

CCc1c(C)nc(-n2nc(C)cc2NC(=O)c2ccccc2SC)[nH]c1=O [MMV676477]
EC50 (THP-1 cell line): > 50000 nM | EC50 [3]: 4780 nM | EC90 [3]: 6110 nM | CC50 (HepG2; read-out: HepG2 CC50): 1300 nM | Relative Bioluminescence (%) [4, 17]: -0.98% | Relative Bioluminescence (%) [4, 18]: -0.92% | EC50 [4, 21]: 70 nM | EC50 [4, 19]: 69 nM | EC90 [4, 20]: 168 nM

CC(C)(C)[C@H]1CC[C@H](CC2=C(O)C(=O)c3ccccc3C2=O)CC1 [MMV689480, Buparvaquone, reference compound]
EC50 [3, 22]: 394 nM | EC90 [3, 22]: 1260 nM | EC50 [7]: 1250 nM and 1440 nM | viability at 2 µM [4, 12]: -0.24% | viability at 10 µM [4, 13]: 0.15% | EC50 ([4]; Leishmania mexicana; hit compounds from the axenic amastigote screen, S3 Table; read-out: EC50, Axenic Amastigotes): 2.2 nM | EC50 [4, 14]: 2 nM | EC90 [4, 15]: 11 nM

CCCCCCCCCCCCCCCCOP(=O)([O-])OCC[N+](C)(C)C [Miltefosine, reference compound]
EC50 [1]: 1990 nM | EC50 [8]: 1110 nM | EC50 [9]: 15700 nM | EC50 ([3]; Leishmania mexicana, THP-1): 10900 nM | EC90 ([3]; Leishmania mexicana, THP-1): 37300 nM | EC50 [4, 11]: 2190 nM | EC50 ([4]; Leishmania mexicana, read-out: EC50 against amastigotes, Axenic): 1990 nM | viability at 2 µM [4, 12]: 43% | viability at 10 µM [4, 13]: 11.5% | EC90 [4, 15]: 19800 nM

CC(C)C[C@@H](C=O)NC(=O)[C@H](CC(C)C)NC(=O)[C@H](CC(C)C)NC(=O)OCc1ccccc1 [MG-132] (Cbz-Leu-Leu-Leu-aldehyde)
bioluminescence relative to the DMSO control [10]: statistically significant increase

From publication PMC6057649, “Development of NanoLuc-PEST expressing Leishmania mexicana as a new drug discovery tool for axenic- and intramacrophage-based assays” (PLoS Neglected Tropical Diseases, 2018)
